# Data from ChEMBL document CHEMBL5715260, “Selectivity Literature for EUbOPEN Chemogenomic Library” (2024).
# Tests used:
# [1] = molecular target: T1, Peroxisome proliferator-activated receptor gamma (Homo sapiens) (UniProt P37231); assay: Selectivity interaction (Reporter gene assay) EUB0001151a PPARG; parameters: recommended concentration 1 uM; settings: screened at recom. conc., Selectivity number of off-targets 1.0, Selectivity number of targets 19.0, Source Knowledge inhouse
# T1 sequence (whole entry): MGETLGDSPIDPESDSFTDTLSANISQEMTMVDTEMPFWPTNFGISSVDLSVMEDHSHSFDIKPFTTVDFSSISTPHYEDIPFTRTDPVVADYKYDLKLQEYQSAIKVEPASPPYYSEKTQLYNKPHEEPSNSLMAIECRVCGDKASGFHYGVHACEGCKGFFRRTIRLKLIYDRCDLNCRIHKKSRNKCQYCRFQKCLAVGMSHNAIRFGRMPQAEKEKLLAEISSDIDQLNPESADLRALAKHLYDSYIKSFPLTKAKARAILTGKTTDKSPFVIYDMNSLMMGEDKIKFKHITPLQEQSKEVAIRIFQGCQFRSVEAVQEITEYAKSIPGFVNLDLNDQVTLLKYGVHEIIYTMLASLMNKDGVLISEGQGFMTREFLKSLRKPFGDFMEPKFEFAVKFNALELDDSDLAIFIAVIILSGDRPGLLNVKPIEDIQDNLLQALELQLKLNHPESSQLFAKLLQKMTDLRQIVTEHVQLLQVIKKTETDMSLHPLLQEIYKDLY
# [2] = molecular target: T2, Hepatocyte nuclear factor 4-alpha (Homo sapiens) (UniProt P41235); assay: Selectivity interaction (Reporter gene assay) EUB0001151a HNF4A; parameters: recommended concentration 1 uM
# T2 sequence (whole entry): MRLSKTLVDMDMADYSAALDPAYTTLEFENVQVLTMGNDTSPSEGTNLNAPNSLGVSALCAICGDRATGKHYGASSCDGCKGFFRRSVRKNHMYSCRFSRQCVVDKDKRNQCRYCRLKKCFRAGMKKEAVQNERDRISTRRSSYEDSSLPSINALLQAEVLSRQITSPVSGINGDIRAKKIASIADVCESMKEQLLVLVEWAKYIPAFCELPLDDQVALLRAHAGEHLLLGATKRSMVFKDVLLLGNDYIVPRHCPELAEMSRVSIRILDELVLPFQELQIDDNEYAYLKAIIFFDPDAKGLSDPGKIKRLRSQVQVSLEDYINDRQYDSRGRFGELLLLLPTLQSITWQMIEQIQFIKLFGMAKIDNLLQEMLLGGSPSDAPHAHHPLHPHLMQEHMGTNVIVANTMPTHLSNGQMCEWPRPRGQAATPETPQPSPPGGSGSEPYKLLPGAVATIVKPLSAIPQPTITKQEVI
# [3] = molecular target: T3, Nuclear receptor subfamily 2 group C member 1 (Homo sapiens) (UniProt P13056); assay: Selectivity interaction (Reporter gene assay) EUB0001151a NR2C1; parameters: recommended concentration 1 uM
# T3 sequence (whole entry): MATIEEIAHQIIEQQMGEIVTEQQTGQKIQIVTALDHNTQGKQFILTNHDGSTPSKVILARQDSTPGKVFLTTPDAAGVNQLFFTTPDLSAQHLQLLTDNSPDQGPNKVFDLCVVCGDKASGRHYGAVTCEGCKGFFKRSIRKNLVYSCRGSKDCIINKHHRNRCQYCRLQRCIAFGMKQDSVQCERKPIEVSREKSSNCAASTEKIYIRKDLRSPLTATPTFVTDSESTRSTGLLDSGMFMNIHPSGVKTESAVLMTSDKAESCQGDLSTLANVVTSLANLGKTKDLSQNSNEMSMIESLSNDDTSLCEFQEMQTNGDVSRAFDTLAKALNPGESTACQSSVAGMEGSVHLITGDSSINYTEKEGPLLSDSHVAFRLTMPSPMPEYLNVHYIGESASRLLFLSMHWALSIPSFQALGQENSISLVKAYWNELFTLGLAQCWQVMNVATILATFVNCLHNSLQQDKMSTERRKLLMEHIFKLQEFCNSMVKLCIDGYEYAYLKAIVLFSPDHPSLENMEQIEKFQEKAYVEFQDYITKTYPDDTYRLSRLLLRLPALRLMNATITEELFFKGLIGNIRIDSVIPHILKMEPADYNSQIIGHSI
# [4] = molecular target: Nuclear receptor subfamily 2 group E member 1 (Homo sapiens) (UniProt Q9Y466); assay: Selectivity interaction (Reporter gene assay) EUB0001151a NR2E1; parameters: recommended concentration 1 uM
# Nuclear receptor subfamily 2 group E member 1 (Homo sapiens), sequence (Q9Y466 whole entry): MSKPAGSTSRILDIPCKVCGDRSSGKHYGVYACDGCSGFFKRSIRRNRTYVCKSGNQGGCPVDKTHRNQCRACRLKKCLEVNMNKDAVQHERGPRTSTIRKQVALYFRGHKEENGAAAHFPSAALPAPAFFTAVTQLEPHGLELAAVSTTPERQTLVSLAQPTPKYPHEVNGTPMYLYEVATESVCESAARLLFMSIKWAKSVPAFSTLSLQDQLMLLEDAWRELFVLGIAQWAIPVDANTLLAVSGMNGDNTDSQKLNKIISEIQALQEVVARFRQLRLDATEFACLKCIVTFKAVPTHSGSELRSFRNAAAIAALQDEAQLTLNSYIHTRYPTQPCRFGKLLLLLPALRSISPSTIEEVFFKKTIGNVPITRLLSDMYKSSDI
# [5] = molecular target: Nuclear receptor subfamily 4immunitygroup A member 1 (Homo sapiens) (UniProt P22736); assay: Selectivity interaction (Reporter gene assay) EUB0001151a NR4A1; parameters: recommended concentration 1 uM
# Nuclear receptor subfamily 4immunitygroup A member 1 (Homo sapiens), sequence (P22736 whole entry): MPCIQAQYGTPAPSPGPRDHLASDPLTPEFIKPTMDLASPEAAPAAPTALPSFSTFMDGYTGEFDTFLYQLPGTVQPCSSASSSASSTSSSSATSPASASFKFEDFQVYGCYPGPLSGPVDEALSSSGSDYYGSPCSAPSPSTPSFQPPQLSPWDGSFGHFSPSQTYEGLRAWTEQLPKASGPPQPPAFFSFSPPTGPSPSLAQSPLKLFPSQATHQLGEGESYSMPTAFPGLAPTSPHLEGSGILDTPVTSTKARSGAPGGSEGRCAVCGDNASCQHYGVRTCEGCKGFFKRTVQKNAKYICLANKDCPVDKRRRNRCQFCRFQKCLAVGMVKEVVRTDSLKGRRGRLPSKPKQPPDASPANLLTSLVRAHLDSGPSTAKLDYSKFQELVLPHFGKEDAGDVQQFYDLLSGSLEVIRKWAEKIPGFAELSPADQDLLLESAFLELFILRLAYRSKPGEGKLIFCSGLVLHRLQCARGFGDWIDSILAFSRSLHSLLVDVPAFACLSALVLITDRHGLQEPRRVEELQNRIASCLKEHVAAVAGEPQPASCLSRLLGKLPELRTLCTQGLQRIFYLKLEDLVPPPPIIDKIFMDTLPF
# [6] = molecular target: Steroidogenic factor 1 (Homo sapiens) (UniProt Q13285); assay: Selectivity interaction (Reporter gene assay) EUB0001151a NR5A1; parameters: recommended concentration 1 uM
# Steroidogenic factor 1 (Homo sapiens), sequence (Q13285 whole entry): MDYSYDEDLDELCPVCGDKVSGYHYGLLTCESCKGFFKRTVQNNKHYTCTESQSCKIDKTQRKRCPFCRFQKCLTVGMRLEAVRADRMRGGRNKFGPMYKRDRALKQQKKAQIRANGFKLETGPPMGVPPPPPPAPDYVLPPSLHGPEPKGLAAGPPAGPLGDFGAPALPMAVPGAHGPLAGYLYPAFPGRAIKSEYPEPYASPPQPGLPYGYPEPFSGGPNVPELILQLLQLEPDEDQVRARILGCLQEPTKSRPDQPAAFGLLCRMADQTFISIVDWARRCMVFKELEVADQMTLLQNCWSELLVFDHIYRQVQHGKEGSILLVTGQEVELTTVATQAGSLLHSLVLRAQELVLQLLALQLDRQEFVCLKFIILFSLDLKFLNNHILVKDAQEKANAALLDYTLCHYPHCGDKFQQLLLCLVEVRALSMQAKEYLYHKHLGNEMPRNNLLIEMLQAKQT
# [7] = molecular target: T4, Alpha trans-inducing protein (Human alphaherpesvirus 1) (UniProt A0A5J6DW59); assay: Selectivity interaction (Reporter gene assay) EUB0001151a UL48; parameters: recommended concentration 1 uM
# T4 sequence (A0A5J6DW59 as listed by the source): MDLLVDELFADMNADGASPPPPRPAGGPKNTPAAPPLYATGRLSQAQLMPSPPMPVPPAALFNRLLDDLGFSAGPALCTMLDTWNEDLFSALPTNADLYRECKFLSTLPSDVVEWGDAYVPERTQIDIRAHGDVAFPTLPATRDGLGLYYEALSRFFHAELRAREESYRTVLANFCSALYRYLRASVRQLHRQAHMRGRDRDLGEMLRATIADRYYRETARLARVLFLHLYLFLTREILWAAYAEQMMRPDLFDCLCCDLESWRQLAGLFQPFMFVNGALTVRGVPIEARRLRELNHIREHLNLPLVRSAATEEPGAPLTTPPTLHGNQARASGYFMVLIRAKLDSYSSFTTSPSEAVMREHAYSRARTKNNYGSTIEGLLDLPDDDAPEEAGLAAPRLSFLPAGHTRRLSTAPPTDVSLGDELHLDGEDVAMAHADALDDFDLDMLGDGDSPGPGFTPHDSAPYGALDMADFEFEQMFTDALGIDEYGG
# [8] = molecular target: T5, Retinoic acid receptor RXR-alpha (Homo sapiens) (UniProt P19793); assay: Selectivity interaction (Reporter gene assay) EUB0001151a RXRA; parameters: recommended concentration 1 uM; settings: reference bexarotene 1 uM, Selectivity number of off-targets 0.0, Selectivity number of targets 1.0, Source Knowledge inhouse
# T5 sequence (whole entry): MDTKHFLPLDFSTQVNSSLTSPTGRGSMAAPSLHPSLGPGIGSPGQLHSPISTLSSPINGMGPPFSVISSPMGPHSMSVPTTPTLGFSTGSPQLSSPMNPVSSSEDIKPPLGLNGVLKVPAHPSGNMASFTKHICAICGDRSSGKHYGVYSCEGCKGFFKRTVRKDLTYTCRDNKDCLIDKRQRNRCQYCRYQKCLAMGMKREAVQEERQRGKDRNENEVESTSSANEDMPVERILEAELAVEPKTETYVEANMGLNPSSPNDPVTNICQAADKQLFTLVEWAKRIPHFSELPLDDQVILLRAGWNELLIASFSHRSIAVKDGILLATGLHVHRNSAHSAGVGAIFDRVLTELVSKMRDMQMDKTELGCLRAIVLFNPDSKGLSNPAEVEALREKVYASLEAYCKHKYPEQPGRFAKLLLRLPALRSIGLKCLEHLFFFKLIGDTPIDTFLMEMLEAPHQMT
# [9] = molecular target: T3, Nuclear receptor subfamily 2 group C member 1 (Homo sapiens); assay: Selectivity interaction (Reporter gene assay) EUB0001155a NR2C1; parameters: recommended concentration 10 uM; settings: screened at recom. conc., Selectivity number of off-targets 2.0, Selectivity number of targets 5.0, Source Knowledge inhouse
# [10] = molecular target: Nuclear receptor subfamily 2 group E member 1 (Homo sapiens) (UniProt Q9Y466); assay: Selectivity interaction (Reporter gene assay) EUB0001155a NR2E1; parameters: recommended concentration 10 uM; settings: screened at recom. conc., Selectivity number of off-targets 2.0, Selectivity number of targets 5.0, Source Knowledge inhouse
# [11] = molecular target: T2, Hepatocyte nuclear factor 4-alpha (Homo sapiens); assay: Selectivity interaction (Reporter gene assay) EUB0001155a HNF4A; parameters: recommended concentration 10 uM
# [12] = molecular target: Nuclear receptor subfamily 4immunitygroup A member 1 (Homo sapiens) (UniProt P22736); assay: Selectivity interaction (Reporter gene assay) EUB0001155a NR4A1; parameters: recommended concentration 10 uM
# [13] = molecular target: Steroidogenic factor 1 (Homo sapiens) (UniProt Q13285); assay: Selectivity interaction (Reporter gene assay) EUB0001155a NR5A1; parameters: recommended concentration 10 uM
# [14] = molecular target: T4, Alpha trans-inducing protein (Human alphaherpesvirus 1); assay: Selectivity interaction (Reporter gene assay) EUB0001155a UL48; parameters: recommended concentration 10 uM
# [15] = molecular target: T5, Retinoic acid receptor RXR-alpha (Homo sapiens); assay: Selectivity interaction (Reporter gene assay) EUB0001155a RXRA; parameters: recommended concentration 10 uM; settings: reference bexarotene 1 uM, Selectivity number of off-targets 0.0, Selectivity number of targets 1.0, Source Knowledge inhouse
# [16] = molecular target: T3, Nuclear receptor subfamily 2 group C member 1 (Homo sapiens); assay: Selectivity interaction (Reporter gene assay) EUB0001152a NR2C1; parameters: recommended concentration 10 uM; settings: screened at recom. conc., Selectivity number of off-targets 1.0, Selectivity number of targets 5.0, Source Knowledge inhouse
# [17] = molecular target: T2, Hepatocyte nuclear factor 4-alpha (Homo sapiens); assay: Selectivity interaction (Reporter gene assay) EUB0001152a HNF4A; parameters: recommended concentration 10 uM
# [18] = molecular target: Nuclear receptor subfamily 2 group E member 1 (Homo sapiens) (UniProt Q9Y466); assay: Selectivity interaction (Reporter gene assay) EUB0001152a NR2E1; parameters: recommended concentration 10 uM
# [19] = molecular target: Nuclear receptor subfamily 4immunitygroup A member 1 (Homo sapiens) (UniProt P22736); assay: Selectivity interaction (Reporter gene assay) EUB0001152a NR4A1; parameters: recommended concentration 10 uM
# [20] = molecular target: Steroidogenic factor 1 (Homo sapiens) (UniProt Q13285); assay: Selectivity interaction (Reporter gene assay) EUB0001152a NR5A1; parameters: recommended concentration 10 uM
# [21] = molecular target: T4, Alpha trans-inducing protein (Human alphaherpesvirus 1); assay: Selectivity interaction (Reporter gene assay) EUB0001152a UL48; parameters: recommended concentration 10 uM
# [22] = molecular target: T5, Retinoic acid receptor RXR-alpha (Homo sapiens); assay: Selectivity interaction (Reporter gene assay) EUB0001152a RXRA; parameters: recommended concentration 10 uM
# [23] = molecular target: Nuclear receptor subfamily 4immunitygroup A member 1 (Homo sapiens) (UniProt P22736); assay: Selectivity interaction (Reporter gene assay) EUB0001153a NR4A1; parameters: recommended concentration 10 uM; settings: screened at recom. conc., Selectivity number of off-targets 1.0, Selectivity number of targets 5.0, Source Knowledge inhouse
# [24] = molecular target: T2, Hepatocyte nuclear factor 4-alpha (Homo sapiens); assay: Selectivity interaction (Reporter gene assay) EUB0001153a HNF4A; parameters: recommended concentration 10 uM
# [25] = molecular target: T3, Nuclear receptor subfamily 2 group C member 1 (Homo sapiens); assay: Selectivity interaction (Reporter gene assay) EUB0001153a NR2C1; parameters: recommended concentration 10 uM
# [26] = molecular target: Nuclear receptor subfamily 2 group E member 1 (Homo sapiens) (UniProt Q9Y466); assay: Selectivity interaction (Reporter gene assay) EUB0001153a NR2E1; parameters: recommended concentration 10 uM
# [27] = molecular target: Steroidogenic factor 1 (Homo sapiens) (UniProt Q13285); assay: Selectivity interaction (Reporter gene assay) EUB0001153a NR5A1; parameters: recommended concentration 10 uM
# [28] = molecular target: T4, Alpha trans-inducing protein (Human alphaherpesvirus 1); assay: Selectivity interaction (Reporter gene assay) EUB0001153a UL48; parameters: recommended concentration 10 uM
# [29] = molecular target: T5, Retinoic acid receptor RXR-alpha (Homo sapiens); assay: Selectivity interaction (Reporter gene assay) EUB0001153a RXRA; parameters: recommended concentration 10 uM; settings: reference bexarotene 1 uM, Selectivity number of off-targets 0.0, Selectivity number of targets 1.0, Source Knowledge inhouse
# [30] = molecular target: T2, Hepatocyte nuclear factor 4-alpha (Homo sapiens); assay: Selectivity interaction (Reporter gene assay) EUB0001156a HNF4A; parameters: recommended concentration 1 uM
# [31] = molecular target: T3, Nuclear receptor subfamily 2 group C member 1 (Homo sapiens); assay: Selectivity interaction (Reporter gene assay) EUB0001156a NR2C1; parameters: recommended concentration 1 uM
# [32] = molecular target: Nuclear receptor subfamily 2 group E member 1 (Homo sapiens) (UniProt Q9Y466); assay: Selectivity interaction (Reporter gene assay) EUB0001156a NR2E1; parameters: recommended concentration 1 uM
# [33] = molecular target: Nuclear receptor subfamily 4immunitygroup A member 1 (Homo sapiens) (UniProt P22736); assay: Selectivity interaction (Reporter gene assay) EUB0001156a NR4A1; parameters: recommended concentration 1 uM
# [34] = molecular target: Steroidogenic factor 1 (Homo sapiens) (UniProt Q13285); assay: Selectivity interaction (Reporter gene assay) EUB0001156a NR5A1; parameters: recommended concentration 1 uM
# [35] = molecular target: T4, Alpha trans-inducing protein (Human alphaherpesvirus 1); assay: Selectivity interaction (Reporter gene assay) EUB0001156a UL48; parameters: recommended concentration 1 uM; settings: screened at recom. conc., Selectivity number of off-targets 0.0, Selectivity number of targets 1.0, Source Knowledge inhouse
# [36] = molecular target: T5, Retinoic acid receptor RXR-alpha (Homo sapiens); assay: Selectivity interaction (Reporter gene assay) EUB0001156a RXRA; parameters: recommended concentration 1 uM; settings: reference bexarotene 1 uM, Selectivity number of off-targets 0.0, Selectivity number of targets 1.0, Source Knowledge inhouse
smiles,measurement,setting,value
O=C(NCCS(=O)(=O)c1ccc(C(F)(F)F)cn1)c1ccc(Cl)cc1,Remaining activity,[1],0.832
same,Fold activation,[2],1.25
same,Fold activation,[3],1.39
same,Fold activation,[4],1.11
same,Fold activation,[5],1.27
same,Remaining activity,[6],0.9
same,P-value,[7],0.0023
same,Relative activation,[8],0.596%
CCCCCNC(=O)N1CCC(CN(Cc2ccc(Cl)cc2)Cc2ccc([N+](=O)[O-])s2)C1 (stereo unspecified),Remaining activity,[9],0.487
same,Remaining activity,[10],0.483
same,Remaining activity,[11],0.711
same,Fold activation,[12],1.24
same,Fold activation,[13],1.16
same,P-value,[14],1.75e-05
same,Relative activation,[15],0.1%
CCOC(=O)N1CCC(CN(Cc2ccc(Cl)cc2)Cc2ccc([N+](=O)[O-])s2)C1 (stereo unspecified),Remaining activity,[16],0.46
same,Remaining activity,[17],0.579
same,Remaining activity,[18],0.62
same,Fold activation,[19],1.3
same,Remaining activity,[20],0.905
same,P-value,[21],0.0179
same,Relative activation,[22],0.237%
CCOC(=O)C1Cc2ccccc2CN1C(=O)c1ccc(SC)s1 (stereo unspecified),Fold activation,[23],2.05
same,Remaining activity,[24],0.77
same,Fold activation,[25],1.13
same,Fold activation,[26],1.33
same,Fold activation,[27],1.11
same,P-value,[28],0.0358
same,Relative activation,[29],0.245%
O=C(Nc1ccc(C(O)(C(F)(F)F)C(F)(F)F)cc1)c1ccc(C(F)(F)F)cc1,Fold activation,[30],1.11
same,Fold activation,[31],1.1
same,Remaining activity,[32],0.903
same,Remaining activity,[33],0.858
same,Fold activation,[34],1.1
same,P-value,[35],0.167
same,Relative activation,[36],0.302%
